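The compound was tested at five concentrations on cells cultured in 96-well plates, with a 48-hour exposure period. TGI denotes the concentration required for complete inhibition of growth.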
Assays:
Test in all cases: growth of human tumour cells (NCI), 48 h
[1] = tested on: M14 melanoma
[2] = tested on: DMS 114 small cell lung
[3] = tested on: HOP-92 NSCLC
[4] = tested on: UO-31 renal
[5] = tested on: COLO 205 colon
[6] = tested on: TK-10 renal
[7] = tested on: HCC-2998 colon
[8] = tested on: SR leukemia
[9] = tested on: SW-620 colon
[10] = tested on: OVCAR-5 ovarian
[11] = tested on: SF-295 CNS
[12] = tested on: HOP-18 NSCLC
[13] = tested on: HT29 colon
[14] = tested on: LOX IMVI melanoma
[15] = tested on: SF-539 CNS
[16] = tested on: NCI-H226 lung
[17] = tested on: SK-MEL-5 melanoma
[18] = tested on: OVCAR-4 ovarian
[19] = tested on: RPMI-8226 leukemia
[20] = tested on: DLD-1 colon
[21] = tested on: K-562 leukemia
[22] = tested on: SF-268 CNS
[23] = tested on: HOP-62 NSCLC
[24] = tested on: DMS 273 small cell lung
[25] = tested on: A498 renal
[26] = tested on: SK-OV-3 ovarian
[27] = tested on: NCI-H460 lung
[28] = tested on: SK-MEL-28 melanoma
[29] = tested on: HCT-15 colon
[30] = tested on: SNB-19 CNS
[31] = tested on: HL-60(TB) leukemia
[32] = tested on: SNB-75 CNS
[33] = tested on: HCT-116 colon
[34] = tested on: CCRF-CEM leukemia
[35] = tested on: M19-MEL melanoma
[36] = tested on: KM20L2 colon
[37] = tested on: SNB-78 CNS
[38] = tested on: A549 NSCLC
[39] = tested on: CAKI-1 renal
[40] = tested on: OVCAR-8 ovarian
[41] = tested on: SK-MEL-2 melanoma
[42] = tested on: LXFL 529 NSCLC
[43] = tested on: ACHN renal
[44] = tested on: NCI-H522 lung
[45] = tested on: OVCAR-3 ovarian
[46] = tested on: KM12 colon
[47] = tested on: UACC-257 melanoma
[48] = tested on: EKVX NSCLC
[49] = tested on: RXF 393 renal
[50] = tested on: U251 CNS
[51] = tested on: IGROV1 ovarian
[52] = tested on: SN12C renal
[53] = tested on: XF 498 CNS
[54] = tested on: NCI-H23 lung
[55] = tested on: UACC-62 melanoma
[56] = tested on: 786-0 renal
[57] = tested on: RXF-631 renal
[58] = tested on: MALME-3M melanoma
[59] = tested on: MOLT-4 leukemia

In the case of COc1ccc(C2=NOP(c3ccccc3)(c3ccccc3)(c3ccccc3)C2)cc1, the TGI [1] is reported as 41.9 µM, the TGI [2] is reported as 26.2 µM and the TGI [3] is reported as 53.2 µM. For the same compound, the TGI [4] was > 100 µM, the TGI [5] was 23.5 µM and the TGI [6] was > 100 µM. The TGI [7] was > 76.5 µM, the TGI [8] was 34.9 µM and the TGI [9] was > 56.2 µM. For the same compound, the TGI [10] was > 75.9 µM, the TGI [11] was 61.2 µM and the TGI [12] was > 100 µM. The TGI [13] was > 48.5 µM, the TGI [14] was 27.1 µM and the TGI [15] was > 100 µM. The TGI [16] was 98.4 µM, the TGI [17] was 28.8 µM and the TGI [18] was > 100 µM. For the same compound, the TGI [19] was 33.5 µM, the TGI [20] was > 61.7 µM and the TGI [21] was 31.4 µM. For the same compound, the TGI [22] was > 100 µM, the TGI [23] was > 100 µM and the TGI [24] was > 47.6 µM. For the same compound, the TGI [25] was 89.7 µM, the TGI [26] was > 100 µM and the TGI [27] was > 45.1 µM. The TGI [28] was > 100 µM, the TGI [29] was > 53 µM and the TGI [30] was > 100 µM. The TGI [31] was 14 µM, the TGI [32] was > 89.4 µM and the TGI [33] was 21.4 µM. For the same compound, the TGI [34] was 39.6 µM, the TGI [35] was 57.7 µM and the TGI [36] was > 76.2 µM. The TGI [37] was > 100 µM, the TGI [38] was > 76.1 µM and the TGI [39] was > 64 µM. For the same compound, the TGI [40] was > 92.7 µM, the TGI [41] was > 60 µM and the TGI [42] was > 56.7 µM. For the same compound, the TGI [43] was > 100 µM, the TGI [44] was 25.1 µM and the TGI [45] was > 85.5 µM. The TGI [46] was > 100 µM, the TGI [47] was 99.2 µM and the TGI [48] was > 100 µM. The TGI [49] was 97.4 µM, the TGI [50] was > 93.1 µM and the TGI [51] was > 100 µM. For the same compound, the TGI [52] was > 100 µM, the TGI [53] was 49.7 µM and the TGI [54] was > 72.5 µM. The TGI [55] was 53.2 µM, the TGI [56] was > 53.4 µM and the TGI [57] was > 100 µM. It also gave a TGI [58] of 50.9 µM and a TGI [59] of 41.2 µM.

CC1=C(C(=O)Nc2ccccc2)C(c2ccc(C(C)C)cc2)C(C(=O)Nc2ccccc2)=C(C)N1 gave a TGI [1] of 55.9 µM, a TGI [2] of 47.5 µM and a TGI [3] of 32.5 µM. The TGI [4] was 46.6 µM, the TGI [5] was 28.6 µM and the TGI [6] was > 100 µM. The TGI [7] was 20.9 µM, the TGI [8] was 55.5 µM and the TGI [9] was 41.5 µM. The TGI [10] was 38.5 µM, the TGI [11] was > 100 µM and the TGI [12] was 49.3 µM. For the same compound, the TGI [13] was 29.9 µM, the TGI [14] was 30.4 µM and the TGI [15] was 17.6 µM. For the same compound, the TGI [16] was 54.9 µM, the TGI [17] was 27 µM and the TGI [18] was > 100 µM. For the same compound, the TGI [19] was 29.8 µM, the TGI [20] was > 100 µM and the TGI [21] was 54.9 µM. The TGI [22] was > 100 µM, the TGI [23] was 85.7 µM and the TGI [25] was > 72.3 µM. For the same compound, the TGI [26] was 82.9 µM, the TGI [27] was 55.4 µM and the TGI [28] was > 63.7 µM. For the same compound, the TGI [29] was 61.4 µM, the TGI [30] was > 100 µM and the TGI [31] was 30.7 µM. It also gave a TGI [32] of 99.3 µM, a TGI [33] of 27 µM and a TGI [34] of 75.2 µM. For the same compound, the TGI [35] was 35.6 µM, the TGI [36] was 31.7 µM and the TGI [37] was > 100 µM. For the same compound, the TGI [38] was > 100 µM, the TGI [39] was > 100 µM and the TGI [40] was > 66.3 µM. The TGI [41] was 31.2 µM, the TGI [42] was > 67.7 µM and the TGI [43] was > 66.9 µM. The TGI [44] was 45.4 µM, the TGI [45] was 56.3 µM and the TGI [46] was 77.8 µM. For the same compound, the TGI [48] was > 88 µM, the TGI [49] was 27.6 µM and the TGI [50] was 45.1 µM. The TGI [51] was > 100 µM, the TGI [52] was 27.8 µM and the TGI [53] was 27 µM. The TGI [54] was > 58.5 µM, the TGI [55] was 35 µM and the TGI [56] was 30.2 µM. The TGI [57] was > 85.1 µM, the TGI [58] was 30.2 µM and the TGI [59] was 57.5 µM.

Source: PubChem BioAssay (NCI)
